From the NIST ThermoML archive (doi:10.1016/j.jct.2006.04.007)
Values joined by “and” are separate entries in the source; they are usually repeats but may differ in a detail not shown here. Equal entries are not always repeated.

Test: mn = molality of the nth substance listed, in mol/kg
Settings: 350 kPa, Liquid; for apparent molar heat capacity: Extra sensitive DSC

CC(=O)N[C@@H](C=O)[C@@H](O)[C@H](O)[C@H](O)CO [N-acetyl-D-glucosamine] + O
Settings	apparent molar heat capacity	mass density
278.15 K, m1 = 0.0096	385 J/K/mol	–
278.15 K, m1 = 0.01	–	1000.31 kg/m3
278.15 K, m1 = 0.02	–	1001.78 kg/m3
278.15 K, m1 = 0.0207	377 J/K/mol	–
278.15 K, m1 = 0.03	365 J/K/mol and 358 J/K/mol	1002.26 kg/m3 and 1001.98 kg/m3
278.15 K, m1 = 0.07	362 J/K/mol	1005.5 kg/m3
278.15 K, m1 = 0.1502	348.5 J/K/mol	1012.23 kg/m3
278.15 K, m1 = 0.1999	368.5 J/K/mol	1014.67 kg/m3
278.15 K, m1 = 0.3018	373.1 J/K/mol	1021.8 kg/m3
278.15 K, m1 = 0.5001	378.3 J/K/mol	1035.28 kg/m3
278.15 K, m1 = 0.7003	380.2 J/K/mol	1047.7 kg/m3
278.15 K, m1 = 0.958	358.2 J/K/mol	1065.18 kg/m3
283.15 K, m1 = 0.0096	416 J/K/mol	–
283.15 K, m1 = 0.01	–	1000.13 kg/m3
283.15 K, m1 = 0.02	–	1001.42 kg/m3
283.15 K, m1 = 0.0207	403 J/K/mol	–
283.15 K, m1 = 0.03	385 J/K/mol and 387 J/K/mol	1001.76 kg/m3 and 1002.02 kg/m3
283.15 K, m1 = 0.07	385 J/K/mol	1005.11 kg/m3
283.15 K, m1 = 0.1502	374.5 J/K/mol	1011.82 kg/m3
283.15 K, m1 = 0.1999	392.8 J/K/mol	1014.24 kg/m3
283.15 K, m1 = 0.3018	396.5 J/K/mol	1021.3 kg/m3
283.15 K, m1 = 0.5001	401.6 J/K/mol	1034.59 kg/m3
283.15 K, m1 = 0.7003	403.8 J/K/mol	1046.91 kg/m3
283.15 K, m1 = 0.958	381.8 J/K/mol	1064.21 kg/m3
288.15 K, m1 = 0.0096	435 J/K/mol	–
288.15 K, m1 = 0.01	–	999.6 kg/m3
288.15 K, m1 = 0.02	–	1000.86 kg/m3
288.15 K, m1 = 0.0207	421 J/K/mol	–
288.15 K, m1 = 0.03	404 J/K/mol and 401 J/K/mol	1001.23 kg/m3 and 1001.43 kg/m3
288.15 K, m1 = 0.07	405 J/K/mol	1004.42 kg/m3
288.15 K, m1 = 0.1502	394.4 J/K/mol	1011.1 kg/m3
288.15 K, m1 = 0.1999	411.9 J/K/mol	1013.51 kg/m3
288.15 K, m1 = 0.3018	415.2 J/K/mol	1020.51 kg/m3
288.15 K, m1 = 0.5001	420.1 J/K/mol	1033.66 kg/m3
288.15 K, m1 = 0.7003	422 J/K/mol	1045.87 kg/m3
288.15 K, m1 = 0.958	400.5 J/K/mol	1063.03 kg/m3
293.15 K, m1 = 0.0096	450 J/K/mol	–
293.15 K, m1 = 0.0207	436 J/K/mol	–
293.15 K, m1 = 0.03	420 J/K/mol and 415 J/K/mol	–
293.15 K, m1 = 0.07	421 J/K/mol	–
293.15 K, m1 = 0.1502	411.4 J/K/mol	–
293.15 K, m1 = 0.1999	428.3 J/K/mol	–
293.15 K, m1 = 0.3018	431.3 J/K/mol	–
293.15 K, m1 = 0.5001	436 J/K/mol	–
293.15 K, m1 = 0.7003	437.9 J/K/mol	–
293.15 K, m1 = 0.958	416.6 J/K/mol	–
298.15 K, m1 = 0.0096	462 J/K/mol	–
298.15 K, m1 = 0.0207	449 J/K/mol	–
298.15 K, m1 = 0.03	433 J/K/mol and 432 J/K/mol	–
298.15 K, m1 = 0.07	437 J/K/mol	–
298.15 K, m1 = 0.1502	426.5 J/K/mol	–
298.15 K, m1 = 0.1999	442.5 J/K/mol	–
298.15 K, m1 = 0.3018	445.2 J/K/mol	–
298.15 K, m1 = 0.5001	449.8 J/K/mol	–
298.15 K, m1 = 0.7003	451.5 J/K/mol	–
298.15 K, m1 = 0.958	430.5 J/K/mol	–
303.15 K, m1 = 0.0096	474 J/K/mol	–
303.15 K, m1 = 0.0207	461 J/K/mol	–
303.15 K, m1 = 0.03	445 J/K/mol and 447 J/K/mol	–
303.15 K, m1 = 0.07	451 J/K/mol	–
303.15 K, m1 = 0.1502	440 J/K/mol	–
303.15 K, m1 = 0.1999	455 J/K/mol	–
303.15 K, m1 = 0.3018	457.8 J/K/mol	–
303.15 K, m1 = 0.5001	462.3 J/K/mol	–
303.15 K, m1 = 0.7003	463.7 J/K/mol	–
303.15 K, m1 = 0.958	443.2 J/K/mol	–
308.15 K, m1 = 0.0096	486 J/K/mol	–
308.15 K, m1 = 0.01	–	994.68 kg/m3
308.15 K, m1 = 0.02	–	995.7 kg/m3
308.15 K, m1 = 0.0207	472 J/K/mol	–
308.15 K, m1 = 0.03	456 J/K/mol and 459 J/K/mol	996.2 kg/m3 and 996.26 kg/m3
308.15 K, m1 = 0.07	462 J/K/mol	999.2 kg/m3
308.15 K, m1 = 0.1502	452.2 J/K/mol	1005.72 kg/m3
308.15 K, m1 = 0.1999	466.4 J/K/mol	1008.07 kg/m3
308.15 K, m1 = 0.3018	469.2 J/K/mol	1014.85 kg/m3
308.15 K, m1 = 0.5001	473.5 J/K/mol	1027.59 kg/m3
308.15 K, m1 = 0.7003	474.7 J/K/mol	1039.58 kg/m3
308.15 K, m1 = 0.958	454.6 J/K/mol	1056.31 kg/m3
313.15 K, m1 = 0.0096	496 J/K/mol	–
313.15 K, m1 = 0.0207	482 J/K/mol	–
313.15 K, m1 = 0.03	465 J/K/mol and 470 J/K/mol	–
313.15 K, m1 = 0.07	473.4 J/K/mol	–
313.15 K, m1 = 0.1502	463.3 J/K/mol	–
313.15 K, m1 = 0.1999	476.7 J/K/mol	–
313.15 K, m1 = 0.3018	479.6 J/K/mol	–
313.15 K, m1 = 0.5001	483.8 J/K/mol	–
313.15 K, m1 = 0.7003	484.8 J/K/mol	–
313.15 K, m1 = 0.958	465.2 J/K/mol	–
318.15 K, m1 = 0.0096	506 J/K/mol	–
318.15 K, m1 = 0.01	–	990.9 kg/m3
318.15 K, m1 = 0.02	–	991.84 kg/m3
318.15 K, m1 = 0.0207	491 J/K/mol	–
318.15 K, m1 = 0.03	474 J/K/mol and 479 J/K/mol	992.39 kg/m3 and 992.41 kg/m3
318.15 K, m1 = 0.07	483.8 J/K/mol	995.31 kg/m3
318.15 K, m1 = 0.1502	473.6 J/K/mol	1001.76 kg/m3
318.15 K, m1 = 0.1999	486.3 J/K/mol	–
318.15 K, m1 = 0.3018	489.2 J/K/mol	–
318.15 K, m1 = 0.5001	493.4 J/K/mol	–
318.15 K, m1 = 0.7003	494.2 J/K/mol	–
318.15 K, m1 = 0.958	475 J/K/mol	–
